# Experimental data reported in patent publication US10329324B2 (viDA Therapeutics Inc., priority 2013, dated 2019).
# pIC50: −log10 of the molar value.
# Molecular target: T1, human Granzyme B (hGzmB) (Homo sapiens, UniProt P10144)
# T1 construct: purchased Froelich Lab, Northshore University Health Systems Research Institute, Evanston, Ill., USA
# Assay: Human Granzyme B enzymatic inhibition assay (fluorogenic, kinetic)
# Type: biochemical
# Conditions: not given
# Procedure: A specific 2× assay buffer was prepared for the enzyme to be tested (see Table 2 for final 1× assay buffer compositions). If the assay buffer included DTT, it was added immediately prior to running the assay. A 2× enzyme mix was prepared (see Table 3 for enzyme assay conditions) at 80 uL per well. Compounds were screened at one or two appropriate concentrations (to determine the percent inhibition at those concentrations) and/or a full dose response curve (typically 8 points, to identify the IC50) in duplicate, triplicate, or higher replicates as needed. An appropriate control was also assessed in full dose response, in duplicate for each assay/plate. Background control wells consisted of 1× assay buffer, DMSO (5% v/v) and substrate. Positive control wells consisted of enzyme, DMSO (5% v/v) and substrate. Test compounds and control compounds were diluted in DMSO to […] the final desired concentration. For example, a test compound may be tested in dose response, in serial, tripling dilution condition starting at 20 uM and ending at 9.1 nM (or any appropriate concentration range and dilution scheme). Control compounds were prepared similarly. Diluted compounds were prepared in a dilution plate and transferred to the reaction plate (96-well medium binding plate (Greiner Bio-One FLUOTRAC™)) to allow for the desired final concentrations when added to the enzyme with AB. After mixing, the reaction plate was placed on a shaker (at 300 RPM) for 5 min, followed by incubation (covered) on the bench, for 20 min. Plates were warmed to reaction temperature (see Table 3) for a total incubation time of 30 min. Plates so prepared were ready for addition of substrate and the subsequent reaction.
# (§1) An appropriate substrate for each assay was prepared in advance at 2× the final desired concentration (see Table 2) in DMSO. The appropriate substrate mix was added to each appropriate well on the reaction plate, and the plate was read immediately in the TECAN plate reader (TECAN INFINITE® M1000 Pro), set to the correct wavelength as needed for each assay (see Table 3) using 25 cycles, kinetic interval of 1 min, number of reads per well of 20 with shaking set to 1 s, double orbital, 2 mm amplitude. For fluorescent assays the gain was set to optimal (50%).
# An in vitro fluorogenic detection assay for assessing the IC50 and/or percent inhibition at a given concentration of inhibitors against human Granzyme B (hGzmB) enzyme was performed as described in Example D1. When appropriate, percent inhibition data was collected and fitted to generate IC50 data using GraphPad Prism 5 (GraphPad Software, La Jolla Calif. USA, www.graphpad.com) and its non-linear regression analysis tools or other equivalent tools. […]
# as §1, with “5)” for “2)”, “assay buffer. 30 uL of the” for “DMSO. The”, “6)” for “3)”, “15” for “25”, “(100% with gain regulation) for all assays except human GzmB which was set to 85 (with the z set at 23000 um).” for “(50%).”
# An in vitro fluorogenic detection assay for assessing the IC50 and/or percent inhibition at a given concentration of inhibitors against human Granzyme B (hGzmB) enzyme was performed as described in Example D5. When appropriate, percent inhibition data was collected and fitted to generate IC50 data using GraphPad Prism 5 (GraphPad Software, La Jolla Calif. USA, www.graphpad.com) and its non-linear regression analysis tools or other equivalent tools.
# T1 sequence (P10144 21-247): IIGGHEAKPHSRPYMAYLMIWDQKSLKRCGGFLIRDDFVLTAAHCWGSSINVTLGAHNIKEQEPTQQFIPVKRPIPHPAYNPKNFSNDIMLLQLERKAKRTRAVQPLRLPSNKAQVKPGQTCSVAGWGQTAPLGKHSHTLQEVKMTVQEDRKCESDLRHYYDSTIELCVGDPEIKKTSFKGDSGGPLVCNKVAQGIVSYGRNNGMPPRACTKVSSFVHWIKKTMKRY
row,Compound,pIC50
1,"CC[C@H](C)[C@H](NC(=O)[C@@H](N)CC(=O)O)C(=O)NCC(=O)N1c2ccccc2C[C@H]1C(=O)NCc1nn[nH]n1 [Example A37, (3S)-3-Amino-3-{[(1S,2S)-2-Methyl-1-({2-Oxo-2-[(2S)-2-[(2H-1,2,3,4-Tetrazol-5-Ylmethyl)Carbamoyl]-2,3-Dihydro-1H-Indol-1-Yl]Ethyl}Carbamoyl)Butyl]Carbamoyl}Propanoic Acid]",6.00 to 7.00
2,"CC[C@H](C)[C@H](NC(=O)[C@H](N)CC(=O)O)C(=O)NCC(=O)N1c2ccccc2C[C@H]1C(=O)NCc1nn[nH]n1 [Example A38, (3R)-3-Amino-3-{[(1S,2S)-2-Methyl-1-({2-Oxo-2-[(2S)-2-[(2H-1,2,3,4-Tetrazol-5-Ylmethyl)Carbamoyl]-2,3-Dihydro-1H-Indol-1-Yl]Ethyl}Carbamoyl)Butyl]Carbamoyl}Propanoic Acid]",6.00 to 7.00

# Same assay, conditions: activity codes, Table 7; read-out: IC50 Activity Range
row,pIC50,Compound
1,6.00 to 7.00,"CC[C@H](C)[C@H](NC(=O)C[C@H](N)C(=O)O)C(=O)NCC(=O)N1c2ccccc2C[C@H]1C(=O)NCc1nn[nH]n1 [Example A39, (2S)-2-Amino-3-{[(1S,2S)-2-Methyl-1-({2-Oxo-2-[(2S)-2-[(2H-1,2,3,4-Tetrazol-5-Ylmethyl)Carbamoyl]-2,3-Dihydro-1H-Indol-1-Yl]Ethyl}Carbamoyl)Butyl]Carbamoyl}Propanoic Acid]"
2,6.00 to 7.00,"CC[C@H](C)[C@H](NC(=O)C[C@@H](N)C(=O)O)C(=O)NCC(=O)N1c2ccccc2C[C@H]1C(=O)NCc1nn[nH]n1 [Example A40, (2R)-2-Amino-3-{[(1S,2S)-2-Methyl-1-({2-Oxo-2-[(2S)-2-[(2H-1,2,3,4-Tetrazol-5-Ylmethyl)Carbamoyl]-2,3-Dihydro-1H-Indol-1-Yl]Ethyl}Carbamoyl)Butyl]Carbamoyl}Propanoic Acid]"
3,5.00 to 6.00,"CC[C@@H](C)[C@H](NC(=O)Cc1ccccc1)C(=O)NCC(=O)N1c2ccccc2C[C@H]1C(=O)NCc1nn[nH]n1 [Example A42, (2S)-1-{2-[(2S,3R)-3-Methyl-2-(2-Phenylacetamido)Pentanamido]Acetyl}-N-(2H-1,2,3,4-Tetrazol-5-Ylmethyl)-2,3-Dihydro-1H-Indole-2-Carboxamide]"
4,6.00 to 7.00,"CC[C@H](C)[C@H](NC(=O)CCC(=O)OCCOC(=O)C(C)(C)C)C(=O)NCC(=O)N1c2ccccc2C[C@H]1C(=O)NCc1nn[nH]n1 [Example A47, 2-[(2,2-Dimethylpropanoyl)Oxy]Ethyl 3-{[(1S,2S)-2-Methyl-1-({2-Oxo-2-[(2S)-2-[(2H-1,2,3,4-Tetrazol-5-Ylmethyl)Carbamoyl]-2,3-Dihydro-1H-Indol-1-Yl]Ethyl}Carbamoyl)Butyl]Carbamoyl}Propanoate]"
5,5.00 to 6.00,"CC[C@H](C)[C@H](NC(=O)C1C[C@@H]1C(=O)O)C(=O)NCC(=O)N1c2ccccc2C[C@H]1C(=O)NCc1nn[nH]n1 (stereo partly drawn) [Example A48, (1S,2S)-2-{[(1S,2S)-2-Methy-1-({2-Oxo-2-[(2S)-2-[(2H-1,2,3,4-Tetrazol-5-Ylmethyl)Carbamoyl]-2,3-Dihydro-1H-Indol-1-Yl]Ethyl}Carbamoyl)Butyl]Carbamoyl}Cyclopropane-1-Carboxylic Acid]"
6,6.00 to 7.00,"CC[C@H](C)[C@H](NC(=O)[C@H](C)c1ccccc1)C(=O)NCC(=O)N1c2ccccc2C[C@H]1C(=O)NCc1nn[nH]n1 [Example A49, (2S)-1-{2-[(2S,3S)-3-Methyl-2-[(2R)-2-Phenylpropanamido]Pentanamido]Acetyl}-N-(2H-1,2,3,4-Tetrazol-5-Ylmethyl)-2,3-Dihydro-1H-Indole-2-Carboxamide]"
7,6.00 to 7.00,"CC[C@H](C)[C@H](NC(=O)[C@@H](C)c1ccccc1)C(=O)NCC(=O)N1c2ccccc2C[C@H]1C(=O)NCc1nn[nH]n1 [Example A50, (2S)-1-{2-[(2S,3S)-3-Methyl-2-[(2S)-2-Phenylpropanamido]Pentanamido]Acetyl}-N-(2H-1,2,3,4-Tetrazol-5-Ylmethyl)-2,3-Dihydro-1H-Indole-2-Carboxamide]"
8,> 7.00,"CC[C@H](C)[C@H](NC(=O)CCC(C(=O)O)c1ccccc1)C(=O)NCC(=O)N1c2ccccc2C[C@H]1C(=O)NCc1nn[nH]n1 (stereo partly drawn) [Example A51, 4-{[(1S,2S)-2-Methyl-1-({2-Oxo-2-[(2S)-2-[(2H-1,2,3,4-Tetrazol-5-Ylmethyl)Carbamoyl]-2,3-Dihydro-1H-Indol-1-Yl]Ethyl}Carbamoyl)Butyl]Carbamoyl}-2-Phenylbutanoic Acid]"
9,5.00 to 6.00,CC[C@H](C)[C@H](NC(=O)Cc1ccccc1)C(=O)NCC(=O)N1c2ccccc2C[C@H]1C(=O)NC(C)c1nn[nH]n1 (some centres unmarked) [Example B3]
10,5.00 to 6.00,"CC[C@H](C)[C@H](NC(=O)Cc1ccccc1)C(=O)NCC(=O)N1c2cc(OC)ccc2CC1C(=O)NCc1c[nH]nn1 (stereo partly drawn) [Example B6, 6-Methoxy-1-{2-[(2S,3S)-3-Methyl-2-(2-Phenylacetamido)Pentanamido]Acetyl}-N-(1H-1,2,3-Triazol-5-Ylmethyl)-2,3-Dihydro-1H-Indole-2-Carboxamide]"
11,< 5.00,"C[C@@H](O)[C@H](NC(=O)Cc1ccccc1)C(=O)NCC(=O)N1c2ccccc2C[C@H]1C(=O)NCc1nn[nH]n1 [Example C2, (2S)-1-{2-[(2S,3R)-3-Hydroxy-2-(2-Phenylacetamido)Butanamido]Acetyl}-N-(2H-1,2,3,4-Tetrazol-5-Ylmethyl)-2,3-Dihydro-1H-Indole-2-Carboxamide]"
12,< 5.00,"C[C@H](O)[C@H](NC(=O)Cc1ccccc1)C(=O)NCC(=O)N1c2ccccc2C[C@H]1C(=O)NCc1nn[nH]n1 [Example C3, (2S)-1-{2-[(2S,3S)-3-Hydroxy-2-(2-Phenylacetamido)Butanamido]Acetyl}-N-(2H-1,2,3,4-Tetrazol-5-Ylmethyl)-2,3-Dihydro-1H-Indole-2-Carboxamide]"
13,5.00 to 6.00,"CC(C)C[C@H](NC(=O)Cc1ccccc1)C(=O)NCC(=O)N1c2ccccc2C[C@H]1C(=O)NCc1nn[nH]n1 [Example C4, (2S)-1-{2-[(2S)-4-Methyl-2-(2-Phenylacetamido)Pentanamido]Acetyl}-N-(2H-1,2,3,4-Tetrazol-5-Ylmethyl)-2,3-Dihydro-1H-Indole-2-Carboxamide]"
14,5.00 to 6.00,"CCC[C@H](NC(=O)Cc1ccccc1)C(=O)NCC(=O)N1c2ccccc2C[C@H]1C(=O)NCc1nn[nH]n1 [Example C5, (2S)-1-{2-[(2S)-2-(2-Phenylacetamido)Pentanamido]Acetyl}-N-(2H-1,2,3,4-Tetrazol-5-Ylmethyl)-2,3-Dihydro-1H-Indole-2-Carboxamide]"
15,5.00 to 6.00,"CC(C)(C)[C@H](NC(=O)Cc1ccccc1)C(=O)NCC(=O)N1c2ccccc2C[C@H]1C(=O)NCc1nn[nH]n1 [Example C6, (2S)-1-{2-[(2S)-3,3-Dimethyl-2-(2-Phenylacetamido)Butanamido]Acetyl}-N-(2H-1,2,3,4-Tetrazol-5-Ylmethyl)-2,3-Dihydro-1H-Indole-2-Carboxamide]"
16,5.00 to 6.00,"CO[C@H](C)[C@H](NC(=O)Cc1ccccc1)C(=O)NCC(=O)N1c2ccccc2C[C@H]1C(=O)NCc1nn[nH]n1 [Example C7, (2S)-1-{2-[(2S,3R)-3-Methoxy-2-(2-Phenylacetamido)Butanamido]Acetyl}-N-(2H-1,2,3,4-Tetrazol-5-Ylmethyl)-2,3-Dihydro-1H-Indole-2-Carboxamide]"

row,Compound,pIC50
1,"CC(C)(C)OC[C@H](NC(=O)Cc1ccccc1)C(=O)NCC(=O)N1c2ccccc2C[C@H]1C(=O)NCc1nn[nH]n1 [Example C8, (2S)-1-{2-[(2S)-3-(Tert-Butoxy)-2-(2-Phenylacetamido)Propanamido]Acetyl}-N-(2H-1,2,3,4-Tetrazol-5-Ylmethyl)-2,3-Dihydro-1H-Indole-2-Carboxamide]",< 5.00
2,"C[C@@H](OC(C)(C)C)[C@H](NC(=O)Cc1ccccc1)C(=O)NCC(=O)N1c2ccccc2C[C@H]1C(=O)NCc1nn[nH]n1 [Example C9, (2S)-1-{2-[(2S,3R)-3-(Tert-Butoxy)-2-(2-Phenylacetamido)Butanamido]Acetyl}-N-(2H-1,2,3,4-Tetrazol-5-Ylmethyl)-2,3-Dihydro-1H-Indole-2-Carboxamide]",< 5.00
